# Experimental data as given in paper PMC4509505 (Journal of functional foods, 2015).
# Like-named read-outs stand apart in the source and are kept apart here.
# Experiments:
# [1] = type: in vivo, male CF-1 mice; conditions: for AUC0→720min / Cmax / Tmax: EGCG 100 mg/kg i.g.
# [2] = target: T1, catechol-O-methyl transferase (COMT) (Mus musculus, UniProt O88587); assay: Fraction of unmethylated total EGCG; type: in vivo, male CF-1 mice
# T1 sequence (O88587 1-265): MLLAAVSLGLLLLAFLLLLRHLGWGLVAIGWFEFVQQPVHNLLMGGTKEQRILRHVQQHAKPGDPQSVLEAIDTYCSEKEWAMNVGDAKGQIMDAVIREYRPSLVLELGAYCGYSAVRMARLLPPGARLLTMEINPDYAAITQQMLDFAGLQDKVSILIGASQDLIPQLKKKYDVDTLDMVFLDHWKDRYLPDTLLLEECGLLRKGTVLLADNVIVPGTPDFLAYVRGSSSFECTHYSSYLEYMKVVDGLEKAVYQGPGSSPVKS
# [3] = system: human lung cancer cells; conditions: human lung cancer cells in vitro; ref Forester & Lambert, 2014; cited from earlier work
# [4] = system: murine lung cancer cells; conditions: murine lung cancer cells in vitro; ref Forester & Lambert, 2014; cited from earlier work
# [5] = system: COMT; conditions: ref Wang, Heber, & Henning, 2012; cited from earlier work
smiles,measurement,setting,value
"O=C(O[C@@H]1Cc2c(O)cc(O)cc2O[C@@H]1c1cc(O)c(O)c(O)c1)c1cc(O)c(O)c(O)c1 [EGCG, (−)-epigallocatechin-3-gallate]",AUC0→720min,"[1]; Cecum, TOL (+) 30 mg/kg i.g.",39152.8 ± 8338.2 (nmol/g)•min
same,Cmax,"[1]; Cecum, TOL (+) 30 mg/kg i.g.",97.7 ± 19.4 nmol/g
same,Tmax,"[1]; Cecum, TOL (+) 30 mg/kg i.g.",7.555 ± 2.118 h
same,AUC0→720min,"[1]; Cecum, TOL (−)",41580.2 ± 10560.6 (nmol/g)•min
same,Cmax,"[1]; Cecum, TOL (−)",117.7 ± 31.7 nmol/g
same,Tmax,"[1]; Cecum, TOL (−)",5.013 ± 1.66 h
same,AUC0→720min,"[1]; Colon, TOL (+) 30 mg/kg i.g.",18631.3 ± 2844.0 (nmol/g)•min
same,Cmax,"[1]; Colon, TOL (+) 30 mg/kg i.g.",37.6 ± 5.8 nmol/g
same,Tmax,"[1]; Colon, TOL (+) 30 mg/kg i.g.",4 ± 1 h
same,AUC0→720min,"[1]; Colon, TOL (−)",26301.3 ± 8881.3 (nmol/g)•min
same,Cmax,"[1]; Colon, TOL (−)",63.8 ± 9.6 nmol/g
same,Tmax,"[1]; Colon, TOL (−)",7 ± 2.645 h
same,AUC0→720min,"[1]; Kidney, TOL (+) 30 mg/kg i.g.",461.7 ± 358.5 (nmol/g)•min
same,Cmax,"[1]; Kidney, TOL (+) 30 mg/kg i.g.",2.0 ± 1.7 nmol/g
same,Tmax,"[1]; Kidney, TOL (+) 30 mg/kg i.g.",4.445 ± 3.783 h
same,AUC0→720min,"[1]; Kidney, TOL (−)",95.7 ± 5.6 (nmol/g)•min
same,Cmax,"[1]; Kidney, TOL (−)",0.4 ± 0.1 nmol/g
same,Tmax,"[1]; Kidney, TOL (−)",6.028 ± 3.44 h
same,AUC0→720min,"[1]; Liver, TOL (+) 30 mg/kg i.g.",1324.8 ± 390.5 (nmol/g)•min
same,Cmax,"[1]; Liver, TOL (+) 30 mg/kg i.g.",2.7 ± 0.7 nmol/g
same,Tmax,"[1]; Liver, TOL (+) 30 mg/kg i.g.",3.528 ± 1.792 h
same,AUC0→720min,"[1]; Liver, TOL (−)",871.5 ± 401.9 (nmol/g)•min
same,Cmax,"[1]; Liver, TOL (−)",2.2 ± 0.9 nmol/g
same,Tmax,"[1]; Liver, TOL (−)",3.333 ± 0.918 h
same,AUC0→720min,"[1]; Lung, TOL (+) 30 mg/kg i.g.",1002.1 ± 682.1 (nmol/g)•min
same,Cmax,"[1]; Lung, TOL (+) 30 mg/kg i.g.",23.3 ± 20.8 nmol/g
same,Tmax,"[1]; Lung, TOL (+) 30 mg/kg i.g.",2.792 ± 1.893 h
same,AUC0→720min,"[1]; Lung, TOL (−)",203.3 ± 156.4 (nmol/g)•min
same,Cmax,"[1]; Lung, TOL (−)",1.4 ± 1.2 nmol/g
same,Tmax,"[1]; Lung, TOL (−)",2.355 ± 1.38 h
same,AUC0→720min,"[1]; Plasma, TOL (+) 30 mg/kg i.g.",154887.7 ± 39082.1 nM·min
same,Cmax,"[1]; Plasma, TOL (+) 30 mg/kg i.g.",1.53 ± 0.345 µM
same,Tmax,"[1]; Plasma, TOL (+) 30 mg/kg i.g.",0.208 ± 0.0567 h
same,AUC0→720min,"[1]; Plasma, TOL (−)",245330.8 ± 74700.1 nM·min
same,Cmax,"[1]; Plasma, TOL (−)",1.19 ± 0.315 µM
same,Tmax,"[1]; Plasma, TOL (−)",0.278 ± 0.15 h
same,Tmax,"[1]; Urine (pooled), TOL (+) 30 mg/kg i.g.",0.333 h
same,Tmax,"[1]; Urine (pooled), TOL (−)",0.083 h
same,unmethylated EGCG as fraction of the total,"[2]; plasma, EGCG 100 mg/kg i.g. with co-administration of TOL 30 mg/kg i.g.",87.9%
same,unmethylated EGCG as fraction of the total,"[2]; plasma, mice treated with EGCG 100 mg/kg i.g. only",63.4%
same,unmethylated EGCG as fraction of the total,"[2]; urine, EGCG 100 mg/kg i.g. plus TOL 30 mg/kg i.g.",81.8%
same,unmethylated EGCG as fraction of the total,"[2]; urine, mice treated with EGCG 100 mg/kg i.g. only",29.2%
"Cc1ccc(C(=O)c2cc(O)c(O)c([N+](=O)[O-])c2)cc1 [TOL, tolcapone, reference compound]","effect on Cmax of unmethylated, unconjugated EGCG","[1]; cecum or colon, TOL co-treatment vs EGCG only",did not affect
same,"effect on AUC0→720min of unmethylated, unconjugated EGCG","[1]; liver, kidney, lung and urine, TOL co-administration vs EGCG only",tended to increase
same,"effect on AUC0→720min of unmethylated, unconjugated EGCG","[1]; plasma, cecum and colon, TOL co-treatment vs EGCG only",nor did it affect
same,"effect on Cmax of unmethylated, unconjugated EGCG","[1]; plasma, liver, kidney, lung and urine, TOL co-administration vs EGCG only",tended to increase
same,"effect on levels of unmetabolised (unmethylated, unconjugated) EGCG","[1]; plasma, co-treatment TOL 30 mg/kg + EGCG 100 mg/kg i.g. vs EGCG only (Fig. 2)",did not significantly affect
same,growth inhibition in combination with EGCG,[3],synergistically inhibited
same,growth inhibition in combination with EGCG,[4],synergistically inhibited
CCN(CC)C(=O)/C(C#N)=C/c1cc(O)c(O)c([N+](=O)[O-])c1 [entacapone],growth inhibition in combination with EGCG,[3],synergistically inhibited
same,growth inhibition in combination with EGCG,[4],synergistically inhibited
O=c1c(O)c(-c2ccc(O)c(O)c2)oc2cc(O)cc(O)c12 [quercetin],increase of the levels of EGCG found in the lung and kidney,[5],greater than 2 fold
